The nature of experiment [1]: In-vivo activation of mouse TLR7-mediated innate immune response in immunocompetent BALB/c mouse vaccinated with inactivated influenza A virus H1N1 A/Puerto Rico/8/1934 assessed as fold increase in IgG2a level in serum at 1 ug measured 3 weeks after immunization in presence of N6-butyl-7-(4-((diethylamino)methyl)-2-methoxybenzyl)-7H-purine-2,6-diamine by ELISA analysis. Type of experiment: functional. The conditions noted are these: dose 1 µg. (In an ELISA, binding on a coated surface is turned into a signal by an enzyme label.)

In experiment [2] the target is T1, Toll-like receptor 7 (Mus musculus) (UniProt P58681).
T1 sequence (whole entry): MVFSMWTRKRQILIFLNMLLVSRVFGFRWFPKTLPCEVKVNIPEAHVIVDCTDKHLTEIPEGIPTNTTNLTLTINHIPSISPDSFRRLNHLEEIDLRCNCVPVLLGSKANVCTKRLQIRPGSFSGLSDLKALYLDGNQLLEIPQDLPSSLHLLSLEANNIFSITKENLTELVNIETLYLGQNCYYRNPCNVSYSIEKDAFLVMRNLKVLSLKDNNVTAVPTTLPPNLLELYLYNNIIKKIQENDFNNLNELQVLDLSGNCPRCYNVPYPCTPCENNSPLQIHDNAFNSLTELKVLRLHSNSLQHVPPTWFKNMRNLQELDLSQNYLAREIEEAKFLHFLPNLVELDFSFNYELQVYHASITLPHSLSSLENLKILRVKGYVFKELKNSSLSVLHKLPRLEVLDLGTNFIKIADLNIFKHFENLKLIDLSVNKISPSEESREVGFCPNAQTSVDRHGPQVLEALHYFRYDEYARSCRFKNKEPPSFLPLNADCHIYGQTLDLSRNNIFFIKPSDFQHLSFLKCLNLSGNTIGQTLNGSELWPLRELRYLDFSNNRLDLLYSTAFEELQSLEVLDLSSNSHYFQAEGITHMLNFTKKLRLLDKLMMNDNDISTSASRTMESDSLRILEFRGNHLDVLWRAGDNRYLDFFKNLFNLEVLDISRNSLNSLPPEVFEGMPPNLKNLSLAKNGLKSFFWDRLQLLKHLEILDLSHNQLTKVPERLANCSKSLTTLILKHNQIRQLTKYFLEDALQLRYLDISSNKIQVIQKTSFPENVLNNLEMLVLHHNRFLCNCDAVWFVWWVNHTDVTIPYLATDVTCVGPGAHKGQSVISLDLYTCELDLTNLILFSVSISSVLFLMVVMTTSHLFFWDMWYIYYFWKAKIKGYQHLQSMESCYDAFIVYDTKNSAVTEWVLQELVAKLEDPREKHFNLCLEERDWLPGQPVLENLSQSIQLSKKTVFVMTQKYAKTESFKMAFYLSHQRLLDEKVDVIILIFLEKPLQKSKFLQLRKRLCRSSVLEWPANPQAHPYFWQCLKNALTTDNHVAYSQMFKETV
The experiment is described as follows: Agonist activity at mouse TLR7 expressed in HEK293 cells co-expressing NF-kappaB/AP-1 inducible SEAP reporter gene at 33 uM measured for 24 hrs by colorimetric analysis relative to control. It counts as cell-based.

The target in experiment [3] is T2, Toll-like receptor 7 (Mus musculus, UniProt P58681).
T2 sequence (P58681 whole entry): T1 sequence (whole entry)
The experiment is described as follows: Agonist activity at mouse TLR7 expressed in HEK293 cells co-expressing NF-kappaB/AP-1 inducible SEAP reporter gene measured for 24 hrs by colorimetric analysis. Type of experiment: cell-based.

The species named for experiment [4] is Mus musculus. Briefly: Immunostimulatory activity in BALB/c mouse vaccinated with inactivated PR8 (A/H1N1) assessed as decrease in body weight at 1 ug measured 3 weeks after immunization. Type of experiment: functional, organism-based. The conditions noted are these: dose 1.0 µg.
The target of a further experiment is T3, Toll-like receptor 8 (Homo sapiens, UniProt Q9NR97).
T3 sequence (Q9NR97 whole entry): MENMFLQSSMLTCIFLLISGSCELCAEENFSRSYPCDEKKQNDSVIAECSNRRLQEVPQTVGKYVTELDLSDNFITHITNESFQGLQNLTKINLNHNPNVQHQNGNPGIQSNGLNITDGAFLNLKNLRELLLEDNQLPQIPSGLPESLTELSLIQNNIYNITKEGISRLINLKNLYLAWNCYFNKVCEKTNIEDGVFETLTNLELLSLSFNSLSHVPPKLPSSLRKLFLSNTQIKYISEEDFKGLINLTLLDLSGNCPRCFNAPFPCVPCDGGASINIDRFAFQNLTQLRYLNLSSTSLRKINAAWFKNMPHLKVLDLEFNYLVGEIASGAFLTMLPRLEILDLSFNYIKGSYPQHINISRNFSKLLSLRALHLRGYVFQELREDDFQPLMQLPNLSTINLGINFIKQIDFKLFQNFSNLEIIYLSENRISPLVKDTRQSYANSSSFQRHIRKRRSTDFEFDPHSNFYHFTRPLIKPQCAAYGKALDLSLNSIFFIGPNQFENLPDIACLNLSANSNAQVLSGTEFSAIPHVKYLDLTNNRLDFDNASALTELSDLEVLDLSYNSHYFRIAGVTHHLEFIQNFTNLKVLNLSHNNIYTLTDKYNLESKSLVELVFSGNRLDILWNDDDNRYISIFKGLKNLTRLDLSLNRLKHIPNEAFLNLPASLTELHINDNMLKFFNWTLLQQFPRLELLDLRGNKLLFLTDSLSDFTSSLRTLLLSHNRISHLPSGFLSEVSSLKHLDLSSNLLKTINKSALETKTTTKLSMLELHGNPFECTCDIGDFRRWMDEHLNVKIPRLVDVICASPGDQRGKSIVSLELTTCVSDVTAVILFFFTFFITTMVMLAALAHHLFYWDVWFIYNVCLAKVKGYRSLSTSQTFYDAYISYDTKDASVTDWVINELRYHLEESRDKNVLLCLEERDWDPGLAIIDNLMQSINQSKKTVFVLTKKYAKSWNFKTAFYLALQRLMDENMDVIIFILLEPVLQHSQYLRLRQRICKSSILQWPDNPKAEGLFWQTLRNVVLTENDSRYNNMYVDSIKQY
Briefly: Agonist activity at human TLR8 expressed in HEK-blue TLR cells measured for 18 to 19 hrs by SEAP reporter gene based assay. Type of experiment: cell-based. In general terms: In a reporter assay the amount or activity of a reporter protein is the signal.

In experiment [5] the target is T4, Toll-like receptor 7 (Homo sapiens, UniProt Q9NYK1).
T4 sequence (Q9NYK1 whole entry): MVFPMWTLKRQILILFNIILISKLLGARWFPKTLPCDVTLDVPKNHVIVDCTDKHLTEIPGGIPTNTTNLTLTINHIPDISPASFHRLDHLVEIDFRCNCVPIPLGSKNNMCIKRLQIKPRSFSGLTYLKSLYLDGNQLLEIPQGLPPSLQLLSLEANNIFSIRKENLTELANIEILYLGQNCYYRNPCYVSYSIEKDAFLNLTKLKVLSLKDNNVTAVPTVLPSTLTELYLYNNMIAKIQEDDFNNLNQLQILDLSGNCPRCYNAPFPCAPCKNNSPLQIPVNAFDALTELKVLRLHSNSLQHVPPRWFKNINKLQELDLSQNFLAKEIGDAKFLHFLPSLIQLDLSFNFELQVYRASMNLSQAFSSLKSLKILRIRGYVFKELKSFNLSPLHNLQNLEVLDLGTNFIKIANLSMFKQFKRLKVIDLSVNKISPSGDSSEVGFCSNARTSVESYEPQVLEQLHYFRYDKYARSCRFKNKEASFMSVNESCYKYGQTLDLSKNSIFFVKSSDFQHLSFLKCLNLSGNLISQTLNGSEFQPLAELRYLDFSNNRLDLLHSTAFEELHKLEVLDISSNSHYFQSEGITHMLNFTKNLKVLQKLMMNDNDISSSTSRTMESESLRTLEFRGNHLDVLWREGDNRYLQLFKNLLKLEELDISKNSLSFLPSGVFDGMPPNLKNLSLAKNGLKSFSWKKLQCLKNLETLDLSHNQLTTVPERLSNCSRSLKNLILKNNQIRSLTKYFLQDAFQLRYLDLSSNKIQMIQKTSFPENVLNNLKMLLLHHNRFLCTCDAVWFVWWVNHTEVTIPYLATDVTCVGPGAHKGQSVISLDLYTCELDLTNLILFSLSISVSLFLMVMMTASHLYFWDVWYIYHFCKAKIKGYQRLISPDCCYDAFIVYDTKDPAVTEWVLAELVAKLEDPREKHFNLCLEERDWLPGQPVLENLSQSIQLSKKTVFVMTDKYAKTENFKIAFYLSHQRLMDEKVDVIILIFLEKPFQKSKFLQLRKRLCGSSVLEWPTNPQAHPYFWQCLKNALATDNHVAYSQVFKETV
The experiment is described as follows: Agonist activity at human TLR7 expressed in HEK-blue TLR cells measured for 18 to 19 hrs by SEAP reporter gene based assay. Type of experiment: cell-based.

For experiment [6], the species on record is Mus musculus. The experiment is described as follows: Immunostimulatory activity in BALB/c mouse vaccinated with inactivated PR8 (A/H1N1) assessed as animal survival at 0.1 ug measured 3 weeks after immunization. The settings on record: dose 0.1 µg. Type of experiment: functional.
Experiment [7] concerns Mus musculus. The experiment is described as follows: In-vivo protection against influenza A virus PR8 (A/H1N1) infection in immunocompetent BALB/c mouse model assessed as animal survival rate at 1 ug pretreated with compound for 3 weeks followed by viral infection and measured daily for 2 weeks. Type of experiment: functional. The conditions noted are these: dose 1 µg; time 5 weeks.

Experiment [8] concerns Mus musculus. Briefly: In-vivo protection against influenza A virus PR8 (A/H1N1) infection in immunocompetent BALB/c mouse model assessed as animal survival rate at 0.01 ug pretreated with compound for 3 weeks followed by viral infection and measured daily for 2 weeks. Type of experiment: functional. The settings on record: dose 0.01 µg; time 5 weeks.
The species named for experiment [9] is Mus musculus. Briefly: Immunostimulatory activity in BALB/c mouse vaccinated with inactivated PR8 (A/H1N1) assessed as animal survival at 1 ug measured 3 weeks after immunization. Type of experiment: functional. The conditions noted are these: dose 1 µg.
Experiment [10] is filed under the species Mus musculus. Briefly: Immunostimulatory activity in BALB/c mouse vaccinated with inactivated PR8 (A/H1N1) assessed as animal survival at 0.01 ug measured 3 weeks after immunization. It counts as functional. The conditions noted are these: dose 0.01 µg.
The target of experiment [11] is T4, Toll-like receptor 7. Briefly: Agonist activity at TLR7 (unknown origin).

The values that follow come from ChEMBL document CHEMBL5512680, “Design, Synthesis, and Biological Evaluation of New 2,6,7-Substituted Purine Derivatives as Toll-like Receptor 7 Agonists for Intranasal Vaccine Adjuvants” (J Med Chem, 2024).

As a reminder, the Emax is the maximal effect, on the per cent scale that the assay sets. One may read the EC50 as the midpoint of the concentration-response curve.

Activity calls are given as the source filed them. The calls are words filed in the database; no cut-off is given here.

For the compound `CCCCOc1nc(N)c2c(n1)N(Cc1cccc(CN3CCCC3)c1)CC(=O)N2` [VESATOLIMOD], the “fold change (FC)” value in experiment [1] stood at 5.2. In experiment [2], this compound returned an Emax of 0.657%. At Toll-like receptor 7 [3], it took 4570 nM to reach a half-maximal effect (EC50). Further, the outcome in the experiment listed under Mus musculus [4] was Active.

In the case of `CCCN(CCC)C(=O)C1=Cc2ccc(-c3ccc(C(=O)N4CCCC4)cc3)cc2N=C(N)C1` [MOTOLIMOD], at Toll-like receptor 8, the EC50 was 83.2 nM.

Regarding `CCCCNc1nc(N)nc2ncn(Cc3ccc(CN4CCNCC4)cc3OC)c12`, the midpoint of the response at Toll-like receptor 7 [5], the EC50, lay at 169 nM.

On Toll-like receptor 7 [5], `COc1cc(CO)ccc1Cn1cnc2nc(N)nc(NCc3ccccc3)c21` displayed a concentration giving a half-maximal response (EC50) of 2800 nM.

In the case of `CCOCc1nc2c(N)nc3ccccc3c2n1CC(C)(C)C`, the midpoint of the response on Toll-like receptor 7 [3], the EC50, lay at 299 nM.

Consider `CCCCNc1nc(N)nc2ncn(Cc3ccc(CN(CC)CC)cc3OC)c12`, for which the Survival stood at 33.3% in the experiment listed under Mus musculus [6]; 100% with Mus musculus [7]; 16.7% in the experiment with Mus musculus [8]; 66.7% in the experiment listed under Mus musculus [9]; 16.7% in the experiment filed under Mus musculus [10]. Moreover, the results for the EC50 on Toll-like receptor 7 [3] and on Toll-like receptor 7 [5] were 41.7 nM and 17.5 nM, respectively.

In turn, `CC(C)Cn1cnc2c(N)nc3ccccc3c21` [IMIQUIMOD] had an EC50 on Toll-like receptor 7 [11] of 202 nM.

Regarding `CCCCNc1nc(N)nc2ncn(Cc3ccc(CN(C)C)cc3OC)c12`, at Toll-like receptor 7 [5], the concentration giving a half-maximal response (EC50) stood at 29.7 nM. In other words, the double-digit nanomolar range.

The compound `CCCCNc1nc(N)nc2ncn(Cc3ccc(CN4CCCCC4)cc3OC)c12` gave a half-maximal effective concentration (EC50) on Toll-like receptor 7 [5] of 20.5 nM.

Regarding `CCCCNc1nc(N)nc2ncn(Cc3ccc(CN4CCN(C)CC4)cc3OC)c12`, the figures for the EC50 at Toll-like receptor 7 [5] and on Toll-like receptor 8 (hek-blue tlr) were 24.7 nM and less than 10000 nM, respectively.
